Data taken from patent publication US4758586A, “Indolyl compounds and hyposensitivity use thereof” (USV Pharmaceutical Corp., priority 1986, dated 1988).

How the values were obtained:
Type in all cases: biochemical
[1] = target: T1, Phospholipase A2 (PLA2) (Rattus norvegicus, UniProt P14423); test: In vitro assay for inhibitors of Phospholipase A2 (PLA2) from rat platelets; conditions: pH 7.2, 37° C.; read-out: PLA2, I50
T1 construct: obtained by aggregation of purified rat platelets; from tissue; host or cells: rat platelets (enzyme obtained by aggregation)
T1 sequence (P14423 22-146): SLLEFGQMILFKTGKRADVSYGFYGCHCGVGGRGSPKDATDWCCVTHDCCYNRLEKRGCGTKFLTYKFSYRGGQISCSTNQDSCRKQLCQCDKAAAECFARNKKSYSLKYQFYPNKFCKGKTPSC
Excerpt: B. In Vitro Assay For Inhibitors of Phospholipase A2 Assayed at pH 7.0 (PLA2)
The PLA2 employed in this screen is obtained by aggregation of purified rat platelets. In the enzyme assay phosphatidylcholine having ^14 C-labeled palmitate residues at R1 and R2 is employed as substrate. PLA2 acts by cleaving the R2 fatty acid ester bond yielding free fatty acid and lysophosphatidyl choline as follows: [drawing 19]
Following completion of the reaction, the assay medium is acidified and extracted with hexane, which takes up unreacted substrate and free fatty acid product. The hexane extract is passed over a short silica column which retains 99% of the phosphatidyl choline. The ^14 C-labeled palmitic acid is not retained (90% recovery in eluate) and is collected directly in scintillation counting vials. The released palmitic acid is conveniently quantitated by liquid scintillation spectrometry.
The compounds were tested at 100 uM in a buffer containing 0.3 mM unlabeled phosphatidylcholine (PC), 20-30,000 cpm of ^14 C(CPC), […], 1 mM CaCl2 and 50 mM tris-HCl adjusted to pH 7.2 with 1N NaOH. […] The temperature of the buffer was maintained at a temperature of 37° C. The reaction was initiated by addition of the enzyme and it was terminated 30 minutes later by the addition of […] of 1N HCl.
Following acidification, the samples were extracted with 2 ml of 2-propanol and 2 ml of hexane, vortexed and allowed to stand until the phases separated. Free fatty acids (FFA) and some unreacted substrate were taken up in the isopropanol-saturated hexane. The hexane phase of the extraction mixture was transferred to a short silica gel column which retained […] but not the FFA. The column effluent was collected directly in scintillation vials. The columns were washed once with an additional 2 ml of hexane. The radio labeled FFA were quantitated by liquid scintillation spectrometry.

[2] = tested on: Phospholipase C (PLC); test: In vitro assay for inhibitors of Phospholipase C (PLC) from rat platelets; conditions: read-out: PLC, I50
Excerpt: A. Protocol For In Vitro Assay For Inhibitors Of Phospholipase C (PLC)
The PLC employed in this screen is obtained by aggregation of purified rat platelets in the presence of CaCl2 and ADP. In the enzyme assay phosphatidylinositol having ^3 H -labeled arachidonate residues at R2 is employed as substrate. PLC acts by cleaving the phosphate ester bond yielding diglyceride as follows: [drawing 18]
Following completion of the reaction, the assay medium is acidified and extracted with hexane which takes up unreacted substrate and diglyceride. The hexane extract is passed over a short silica gel column which retains 99% of the phosphatidylinositol. The ^3 H-labeled diglyceride is not retained […]. The diglyceride is conveniently quantitated by liquid scintillation spectrometry.
The compounds were tested at 300 u in a buffer containing 0.06 mM unlabeled phosphatidylcholine (PC), 20-30,000 cpm of (CPC), 150 mM NaCl, 5 mM CaCl2 and 50 mM tris(hydroxymethyl)methylaminopropanesulfonic acid buffer, adjusted to pH 9.0 with 1N NaOH. The temperature of the buffer was maintained at a temperature of 37° C. The reaction was initiated by addition of the enzyme and it was terminated 10 minutes later by addition of 1 ml of 1N HCl.
Following acidification, the samples were extracted with 2 ml of isopropyl alcohol and 2 ml of hexane, vortexed and allowed to stand until the phases separate. […] and some unreacted substrate were taken up in the isopropanol-saturated hexane. The hexane phase of the extraction mixture was transferred to a short silica gel column which retains unreacted phosphatidylinositol, but not the 3H-diglyceride. The column effluent was collected directly in scintillation vials. The columns were washed once with additional 2 ml of hexane. The radiolabelled diglycerides were quantitated by liquid scintillation.

[3] = target: cyclooxygenase; test: Production of TXB2 and PGF2 α in rat peritoneal leukocyte homogenate (cyclooxygenase); conditions: read-out: Cyclox, I50
Excerpt: Another assay has been developed to test the ability of the invented compounds on the activity of cyclooxygenase, which is one of the enzymes metabolizing arachidonic acids. By-products of arachidonic acid metabolism include thromboxanes, a type of which is designated as TXB2, and protoglandins, a class of which is known as PGF2 α. As indicated, supra, these by-products promote inflammatory response to a host of offending stimuli. The following protocol describes a procedure for testing the inhibitory effect on the production of TXB2 and PGF2 α.
Protocol for Detecting the Production of TXB2 and PGF2 α.
A suspension of glycogen elicited rat peritoneal leukocyte-homogenate in buffer is incubated with (^14 C)-arachidonic acid (AA), epinephrine and glutathione for 30 minutes at 37°. The reaction is quenched with 2M citric acid, and a trace amount of (^3 H)-TXB2 and an excess of unlabeled TXB2 and PGF2 α are added to each tube. […] Strips containing the spots are cut out, placed in scintillation vials and the radioactive content is quantitated in a liquid scintillation spectrometer.
After adjusting for the extraction efficiency, the amount (pmole) of (^14 C)-TXB2 and PGF2 α in each of the tubes is calculated. […] The ability of the test compounds to modulate the activity of this enzyme is determined by a decrease or increase in the net amount of TXB2 and PGF2 α produced.

## CCC(=CC=Cc1cn(Cc2ccccc2)c2ccccc12)C(=O)O [Example 9, 5-(1-Benzylindol-3-yl)-2-Ethyl-2,4-Pentadienoic Acid]
[1]
  IC50: 47 µM
[2]
  IC50: 37 µM
[3]
  IC50: 15 µM
